From patent US12502391B2, “Multi-kinase inhibitors of VEGF and TGF beta and uses thereof” (AIVIVA BIOPHARMA, INC., priority 2018, dated 2025)

Experiments:
subconjunctival scarring = assay: Bleb survival after glaucoma filtration surgery in rabbit eyes; assay type: in vivo, rabbits
Protocol: In order to investigate the anti-scarring effect of topically applied test compounds following ocular surgeries, glaucoma filtration surgery was performed on rabbit eyes. Postoperative subconjunctival wound healing is a major cause of late bleb failure after glaucoma filtration surgery in humans. Select multikinase inhibitors were tested for effect on bleb survival over time. Inhibition of subconjunctival fibrosis following surgery will improve bleb survival. Vehicle was used as a negative control and pirfenidone was used a positive control.
A scleral tract was created in the left eyes superiorally by tunneling a beveled 22-gauge intravenous cannula through the sclera, beginning behind the limbus and continuing until the cannula is visible in the anterior chamber. The cannula was flushed with sodium heparin (1000 units) prior to placement. The cannula needle was withdrawn and the cannula advanced beyond the pupillary margin to prevent iris blockage of the tube. The cannula was trimmed approximately 2 mm and secured to the sclera using suture. Both the Tenon's and the conjunctiva were sutured with 9-0 Prolene. Six rabbits were used per group and the left eye of each rabbit underwent glaucoma filtration surgery. The treatment groups include vehicle control, pirfenidone (1%, w/v) as a positive control, sorafenib (0.3%, w/v), and lenvatinib (0.3%, w/v). Eyedrops (35 uL) were topically applied to the eyes following surgery three times day for 30 days. All animals were sacrificed on Day 30.
Bleb was monitored throughout the study. Bleb volumes were measured with the use of calibrated calipers. […] There were differences noted between groups at Day 7, and the majority of blebs were gone by Day 14 through Day 30 indicating bleb failure due to subconjunctival scarring. Results of the vehicle and pirfenidone groups were similar to those reported in the literature (Zhong H et al., Invest Ophthalmol Vis Sci, 52: 3136-3142, 2011).

[1] = system: benign prostate hyperplasia; assay: Testosterone and phenylephrine induced benign prostate hyperplasia in rats; assay type: in vivo, Wistar rats; parameters: key to epithelial hyperplasia score, dorsolateral prostate, representative image / epithelial hyperplasia score, ventral prostate, representative image: severity grade 0 = not present to 5 = severe; settings: TE and PE induced rats; for epithelial hyperplasia score, dorsolateral prostate, representative image / epithelial hyperplasia score, ventral prostate, representative image: intra-prostate injection 0.4 ml on days 1 and 18 (1% w/w; doxazosin mesylate 0.5%), severity grade 0 (not present) through 5 (severe), induced vehicle score=4; for glandular hyperplasia compared to untreated TE/PE induced prostates: intra-prostate injection on days 1 and 18
Protocol: BPH is a true hyperplastic process. Histologic studies have documented an increase in cell number. A study was conducted, therefore, to determine the effects of test compounds and vehicle on testosterone (TE) and phenylephrine (PE) induced benign prostate hyperplasia in rats. Male Wistar rats were induced with testosterone (2 mg/kg) plus phenylephrine (5 mg/kg) administered daily by subcutaneous injection on days 5 through 32. Vehicle or test compounds (all at 1% w/w), nintedanib, sunitinib, lenvatinib, and 0.5% doxazosin mesylate, were administered by intra-prostate injection (0.4 ml) in dorsolateral and ventral lobes on days 1 and 18. Animals were euthanized on day 32. Body weights were determined and prostate glands were harvested. The experimental design is outlined in Table 6.
At necropsy, the ventral and dorsolateral lobes of the prostate were separated and then cut into halves. The left halves were fixed in 10% neutral buffered formalin, sectioned, and stained with Hematoxylin and Eosin (H&E). Histological changes in these sections were scored. Epithelial hyperplasia was recognized as an increase in epithelial cells within normal-appearing gland profiles, primarily reflected by stratification of epithelial cells and increased presence of epithelial tufting and papillary projections. A severity grade of 0 (not present) through 5 (severe) was assigned to each sample.

TGF-β1 mRNA = TGF-β1 mRNA expression (qPCR) in skin of LL-37-challenged mice; assay type: in vivo; settings: single intradermal injection 1.6 mg
Protocol: In our study, mice were injected subcutaneously with 40 μl of LL-37 (3.3 mg/mL) to induce inflammatory reactions. Immediately following the LL-37 injection, axitinib, nintedanib, sunitinib, or lenvatinib were individually administered as a single intradermal injection (1.6 mg). LL-37 injection was repeated every 12 hours for a total of 4 injections. Endotoxin-free water and dexamethasone (3 mg/kg by intraperitoneal injection, twice), respectively, were used as negative and positive control groups.
Mice were then anaesthetized, and tissue samples of lesion sites were excised and fixed for H&E stainings and immunohistochemical analysis. Markers for inflammation (CD4 and CD8) were determined using specific antibodies. TGF beta levels are measured by mRNA expression using qPCR.
The TGFb1 mRNA expression in mice induced with LL37 and treated with lenvatinib was 79% of that challenged with LL37 alone (i.e., without treatment).

subretinal fibrosis = assay: Laser-induced subretinal fibrosis model in mice; assay type: in vivo, C57BL/6 mice; settings: for effect on subretinal fibrosis: approximately 1 μL intravitreally on day of laser application, Days 15 and 35; for neovascular lesion sizes: approximately 1 μL of 1% (w/w) intravitreally on day of laser application
Protocol: The anti-fibrotic effects of test compounds were also evaluated in a subretinal fibrosis model in C57BL/6 mice. Three to five lesions were generated in the Bruch's membrane of the study eye using laser photocoagulation (75-μm spot size, 0.1-s duration, 90 mW, OcuLight TX 532 nm). Subretinal fibrosis started to form 5-7 days post laser application. Test compounds having certain spectrum of multikinase inhibition activities or vehicle were intravitreally injected on the day of laser application. The dosing concentration of the test compounds was 1% (w/w) of nintedanib and lenvatinib. The control groups were vehicle and mouse VEGF164 antibody. There were 12 mice per treatment group. Approximately, 1 μL each of the test compounds, vehicle, or positive control was injected intravitreally to the right eye of each animal. On Days 15 and 35, the eyes were examined with fluorescein angiography, followed by enucleation. Immunostaining on the dissected choroid was used to assess subretinal fibrosis (e.g., collagen 1, isolectin B4 and/or DAPI). The primary antibodies used were fluorescence conjugated isolectin B4 (FITC-conjugated isolectin B4) and anti-collagen type I antibody. […] Thus, these compounds can be used to treat subretinal fibrosis associated with proliferative retinal diseases.

[2] = system: rabbit ear hypertrophic scar; assay: Histopathology of rabbit ear wounds (neovascularization, fibrosis, re-epithelization); assay type: in vivo, New Zealand white rabbits; parameters: key to Total Score, Treated Mean: aggregate of neovascularization, fibrosis, re-epithelization grades; key to Neovascularization score, Treated Mean / Fibrosis/Collagen score, Treated Mean / Re-epithelization score, Treated Mean: five-step severity grade: minimal, mild, moderate, marked, severe; settings: rabbit ear wound, intradermal dosing of 1 wt. %; for Total Score, Treated Mean: aggregation of microscopic findings; for Fibrosis/Collagen score, Treated Mean / Neovascularization score, Treated Mean / Re-epithelization score, Treated Mean: five-step severity grading (minimal to severe)
Protocol: In New Zealand white rabbits, maintained under a surgical plane of anesthesia, trauma stimulation of the skin on the ventral surface of both ears is initiated on Day 1. Trauma sites are evaluated on Days 8, 15, 22, 29, 36, and 43. On days 15 and 29, each site is dosed with test compounds (e.g., 1% w/w, 100 μl) by intradermal or intralesional injections.
At necropsy, each treatment site was harvested and preserved for hematoxylin and […] and Mason's trichrome stainings. Each lesion was examined histologically and graded for neovascularization, fibrosis and re-epithelization using a five-step/severity grading system (minimal, mild, moderate, marked, and severe). The average total score is an aggregation of these microscopic findings relating to an inflammatory response.

SMILES | bleb survival on Day 7 (subconjunctival scarring; eyedrops 35 uL three times a day, pirfenidone 1% w/v, lenvatinib 0.3% w/v, compared to vehicle and sorafenib groups) | epithelial hyperplasia score, dorsolateral prostate, representative image [1] | epithelial hyperplasia score, ventral prostate, representative image [1] | glandular hyperplasia compared to untreated TE/PE induced prostates [1] | TGF-β1 mRNA expression among all treatment groups (TGF-β1 mRNA; LL-37 challenge) | TGFb1 mRNA expression relative to LL37 alone (without treatment) (TGF-β1 mRNA; LL-37 every 12 hours x4, 48 hours after initial LL-37 injection) | effect on subretinal fibrosis (subretinal fibrosis) | neovascular lesion sizes (subretinal fibrosis) | angiogenesis/neovascularization and fibrosis by histopathology versus untreated wounds (words) [2] | average total score of test wounds, fold lower than untreated wounds [2] | Total Score, Treated Mean [2] | Fibrosis/Collagen score, Treated Mean [2] | Neovascularization score, Treated Mean [2] | Re-epithelization score, Treated Mean [2] | angiogenesis/neovascularization and fibrosis by histopathology versus untreated wounds (words) ([2]; listed as Nintedanib) | angiogenesis/neovascularization and fibrosis by histopathology versus untreated wounds (words) ([2]; listed as Sorafenib) | bleb failure on Day 14 (subconjunctival scarring; 0.3% w/v eyedrops three times a day, 6 eyes per group)
COc1cc2nccc(Oc3ccc(NC(=O)NC4CC4)c(Cl)c3)c2cc1C(N)=O [lenvatinib] | kept bleb survival on Day 7 | 2 | 3 | demonstrated reduction of glandular hyperplasia | lowest TGF-β1 mRNA expression | 79% | therapeutic effects in the treatment of subretinal fibrosis | marked reductions in neovascular lesion sizes | – | – | – | – | – | – | – | – | –
COC(=O)c1ccc2c(c1)NC(=O)/C2=C(\Nc1ccc(N(C)C(=O)CN2CCN(C)CC2)cc1)c1ccccc1 [nintedanib] | – | 3 | 3 | demonstrated reduction of glandular hyperplasia | – | – | therapeutic effects in the treatment of subretinal fibrosis | marked reductions in neovascular lesion sizes | decreased angiogenesis and fibrosis | about 1.33 fold | 4.5 | 3 | 1 | 0.5 | much less neovascularization and about the same fibrosis as untreated wounds | – | –
CNC(=O)c1cc(Oc2ccc(NC(=O)Nc3ccc(Cl)c(C(F)(F)F)c3)cc2)ccn1 [sorafenib] | – | – | – | – | – | – | – | – | do not show any reduction in angiogenesis | – | 5.8 | 2.5 | 3 | 0.3 | – | slightly increased neovascularization, and similar or slightly increased fibrosis | all of the sorafenib treated eyes demonstrated bleb failure
